Source: patent US8093035B2, “Pseudomonas sp. strain and method of producing chitinase, chitosanase and nattokinase using the same” (Tamkang University, priority 2008, dated 2012)
Several values for one entry are separate records, joined by “and”; a condition that tells them apart may be missing. Equal entries are not always repeated. Entries after “also recorded” stand apart in the source; their conditions may differ. Where two headings read alike, the source gives them in different places.

Key:
TKU015 nattokinase [1] = test: Influence of organic solvents on activity of TKU015 nattokinase; type: biochemical, Pseudomonas sp. TKU015; conditions: in the presence of organic solvent; for Relative activity(%) TKU015 nattokinase: 100% represents 20 FU/mL
Experimental: Protease activity of the supernatant obtained from culture medium of chitinase (cultured in a liquid shaking culture medium (pH 8) including 0.5% by weight of SSP, 0.1% by weight of K2HPO4 and 0.05% by weight of MgSO4.7H2O for 3 days at 30° C.) is respectively tested using casein and N-succinyl-Ala-Ala-Pro-Phe-pNa as substrate.
(§1) With respect to thermal stability, TKU015 nattokinase is mixed with different solvents and then respectively placed for ten days at 25° C. and 4° C.

TKU015 nattokinase [2] = test: Influence of organic solvents on TKU015 nattokinase activity at different temperature (ten days); type: biochemical, Pseudomonas sp. TKU015; conditions: mixed with solvent, 100% represents 15 FU/mL
Experimental: as §1

chitinase = test: Influence of metal ions and organic solvents on TKU015 chitinase activity; type: biochemical, Pseudomonas sp. TKU015
Experimental: (§2) In order to produce chitinase and chitosanase, generally, TKU015 is cultured in a liquid shaking culture medium (pH 8) including 0.5% by weight of SSP, 0.1% by weight of K2HPO4 and 0.05% by weight of MgSO4.7H2O for 3 days at 30° C. The obtained fermented supernatant is purified with ammonia sulfate precipitation, DEAE-Sepharose chromatography, Phenyl-Sepharose chromatography, and Sephacryl S-100 chromatography in sequence, and a chitinase and a chitosanase is obtained.
(§3) Pseudomonas sp. TKU015 is cultured in a liquid medium (100 mL/250 mL), which employ shrimp shell powder as carbon/nitrogen source, for 2-3 days at 30° C., and chitinase, chitosanase and nattokinase activity are tested in the medium.

chitosanase = type: biochemical, Pseudomonas sp. TKU015
Experimental: as §2, §3

[3] = biological target: Pseudomonas aeruginosa PseA protease (Pseudomonas aeruginosa, UniProt P14756); conditions: cited from earlier work; for Effect of solvent on PseA protease activity: in the presence of solvent
Chain of Pseudomonas aeruginosa PseA protease (P14756 198-498): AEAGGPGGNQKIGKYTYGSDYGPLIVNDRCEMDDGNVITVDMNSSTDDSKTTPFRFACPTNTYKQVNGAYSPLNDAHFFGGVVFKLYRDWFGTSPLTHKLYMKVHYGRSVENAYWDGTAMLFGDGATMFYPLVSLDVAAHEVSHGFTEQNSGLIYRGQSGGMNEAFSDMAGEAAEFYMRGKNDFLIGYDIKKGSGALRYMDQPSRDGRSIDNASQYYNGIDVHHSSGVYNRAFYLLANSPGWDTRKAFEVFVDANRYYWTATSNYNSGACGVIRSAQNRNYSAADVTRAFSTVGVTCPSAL

PST-01 protease = PST-01 protease (Pseudomonas aeruginosa, UniProt P14756); conditions: in the presence of solvent; cited from earlier work
Chain of PST-01 protease (P14756 198-498): as above

san-ai protease = conditions: in the presence of solvent; cited from earlier work
TKU015 nattokinase [4] = type: biochemical, Pseudomonas sp. TKU015; conditions: for Effect on TKU015 nattokinase activity: metal ion or inhibitor added
nattokinase = conditions: ion added; cited from earlier work
TKU015 nattokinase [5] = test: Influence of surfactants on TKU015 nattokinase activity; type: biochemical, Pseudomonas sp. TKU015; conditions: for Relative activity (%) Nattokinase: 100% represents 18 FU/mL
[6] = after placed for 10 days at 25° C.
[7] = after placed for 10 days, temperature not given
[8] = after placed for 10 days at 4° C.
[9] = concentration 5 mM, 100% represents 19 FU/mL
[10] = concentration 10 mM, 100% represents 19 FU/mL

CN(C)C=O [DMF, N,N-dimethylformamide]
Relative activity(%) TKU015 nattokinase (TKU015 nattokinase [1]): 80% and 64%
Relative activity(%) TKU015 nattokinase (TKU015 nattokinase [2]; placed ten days at 4 ° C.): 120%
Relative activity(%) TKU015 nattokinase (TKU015 nattokinase [2]; placed ten days at 25 ° C.): 98%
Organic solvent resistance of chitinase (chitinase; [6]): don't affect activity
Organic solvent resistance of chitosanase (chitosanase; [6]): don't affect activity
Effect of solvent on PseA protease activity [3]: doesn't change
Effect of solvent on PST-01 protease activity (PST-01 protease): doesn't change
Effect of solvent on san-ai protease activity (san-ai protease): doesn't change

CCOCC [ethyl ether]
Inhibition of TKU015 nattokinase activity (TKU015 nattokinase [1]): 50%
Relative activity(%) TKU015 nattokinase (TKU015 nattokinase [1]): 43%
Relative activity(%) TKU015 nattokinase (TKU015 nattokinase [2]; placed ten days at 4 ° C.): 98%
Relative activity(%) TKU015 nattokinase (TKU015 nattokinase [2]; placed ten days at 25 ° C.): 70%
Organic solvent resistance of chitinase (chitinase; [7]): can affect activity
Organic solvent resistance of chitosanase (chitosanase; [8]): can affect activity

[Cu+2] [Cu^2+]
Relative activity (%) Nattokinase (TKU015 nattokinase [4]; [9]): 95%
Effect on TKU015 nattokinase activity (TKU015 nattokinase [4]): does not
Effect of metal ions and PMSF on chitosanase activity (chitosanase): inhibited
Effect of metal ion on nattokinase activity (nattokinase): increased activity

CC(C)CCO [isoamylalcohol]
Relative activity(%) TKU015 nattokinase (TKU015 nattokinase [1]): 60%
Relative activity(%) TKU015 nattokinase (TKU015 nattokinase [2]; placed ten days at 4 ° C.): 88%
Relative activity(%) TKU015 nattokinase (TKU015 nattokinase [2]; placed ten days at 25 ° C.): 100%

Tween 40
Relative activity (%) Nattokinase (TKU015 nattokinase [5]; surfactant 0.5 % (v/v)): 94%
Relative activity (%) Nattokinase (TKU015 nattokinase [5]; surfactant 1 % (v/v)): 70%
Relative activity (%) Nattokinase (TKU015 nattokinase [5]; surfactant 2 % (v/v)): 82%

[Ba+2] [Ba^2+]
Relative activity (%) Nattokinase (TKU015 nattokinase [4]; [9]): 109%

CC#N [acetonitrile]
Relative activity(%) TKU015 nattokinase (TKU015 nattokinase [1]): 88%
Relative activity(%) TKU015 nattokinase (TKU015 nattokinase [2]; placed ten days at 4 ° C.): 90%
Relative activity(%) TKU015 nattokinase (TKU015 nattokinase [2]; placed ten days at 25 ° C.): 80%
Organic solvent resistance of chitinase (chitinase; [7]): can affect activity
Effect of organic solvent on chitosanase activity (chitosanase): can affect activity

C[S+](C)[O-] [DMSO]
Relative activity(%) TKU015 nattokinase (TKU015 nattokinase [1]): 80%
Relative activity(%) TKU015 nattokinase (TKU015 nattokinase [2]; placed ten days at 4 ° C.): 90%
Relative activity(%) TKU015 nattokinase (TKU015 nattokinase [2]; placed ten days at 25 ° C.): 94%

CCOC(C)=O [ethyl acetate]
Relative activity(%) TKU015 nattokinase (TKU015 nattokinase [1]): 70%
Relative activity(%) TKU015 nattokinase (TKU015 nattokinase [2]; placed ten days at 4 ° C.): 118%
Relative activity(%) TKU015 nattokinase (TKU015 nattokinase [2]; placed ten days at 25 ° C.): 92%

Triton X-100
Relative activity (%) Nattokinase (TKU015 nattokinase [5]; surfactant 0.5 % (v/v)): 160%
Relative activity (%) Nattokinase (TKU015 nattokinase [5]; surfactant 1 % (v/v)): 206%
Relative activity (%) Nattokinase (TKU015 nattokinase [5]; surfactant 2 % (v/v)): 344%
Effect on PseA protease activity ([3]; concentration 0.1% or 0.5%): doesn't change

O=C(O)CN(CCN(CC(=O)O)CC(=O)O)CC(=O)O [EDTA]
Relative activity (%) Nattokinase (TKU015 nattokinase [4]): 117%

[Zn+2] [Zn^2+]
Relative activity (%) Nattokinase (TKU015 nattokinase [4]; [9]): 94%

[Mn+2] [Mn^2+]
Relative activity (%) Nattokinase (TKU015 nattokinase [4]; [9]): 102%
Effect of metal ions on chitinase activity (chitinase): inhibited; also recorded: prohibited
Effect of metal ions and PMSF on chitosanase activity (chitosanase): inhibited

CC(C)O [isopropylalcohol]
Relative activity(%) TKU015 nattokinase (TKU015 nattokinase [1]): 68%
Relative activity(%) TKU015 nattokinase (TKU015 nattokinase [2]; placed ten days at 4 ° C.): 115%
Relative activity(%) TKU015 nattokinase (TKU015 nattokinase [2]; placed ten days at 25 ° C.): 120%

xylene
Effect of organic solvent on TKU015 nattokinase activity (TKU015 nattokinase [1]): do not affect
Relative activity(%) TKU015 nattokinase (TKU015 nattokinase [1]): 96%
Relative activity(%) TKU015 nattokinase (TKU015 nattokinase [2]; placed ten days at 4 ° C.): 126%
Relative activity(%) TKU015 nattokinase (TKU015 nattokinase [2]; placed ten days at 25 ° C.): 96%
Organic solvent resistance of chitinase (chitinase; [6]): don't affect activity
Organic solvent resistance of chitosanase (chitosanase; [6]): don't affect activity

CCCCCC [hexane]
Relative activity(%) TKU015 nattokinase (TKU015 nattokinase [1]): 66%

butanol
Relative activity(%) TKU015 nattokinase (TKU015 nattokinase [1]): 70%
Relative activity(%) TKU015 nattokinase (TKU015 nattokinase [2]; placed ten days at 4 ° C.): 125%
Relative activity(%) TKU015 nattokinase (TKU015 nattokinase [2]; placed ten days at 25 ° C.): 85%

[Mg+2] [Mg^2+]
Relative activity (%) Nattokinase (TKU015 nattokinase [4]; [9]): 104%
Effect on TKU015 nattokinase activity (TKU015 nattokinase [4]): does not
Effect of metal ion on nattokinase activity (nattokinase): increased activity

[Ca+2] [Ca^2+]
Relative activity (%) Nattokinase (TKU015 nattokinase [4]; [9]): 108%
Effect on TKU015 nattokinase activity (TKU015 nattokinase [4]): does not
Effect of metal ion on nattokinase activity (nattokinase): increased activity

O=S(=O)(F)Cc1ccccc1 [PMSF, phenylmethanesulfonyl fluoride]
Relative activity (%) Nattokinase (TKU015 nattokinase [4]; [9]): 45%
Relative activity (%) Nattokinase (TKU015 nattokinase [4]; [10]): 0%
Effect on TKU015 nattokinase activity (TKU015 nattokinase [4]): completely inhibited
Effect of metal ions and PMSF on chitosanase activity (chitosanase): inhibited

CO [methanol]
Effect of organic solvent on TKU015 nattokinase activity (TKU015 nattokinase [1]): do not affect
Relative activity(%) TKU015 nattokinase (TKU015 nattokinase [1]): 96%
Relative activity(%) TKU015 nattokinase (TKU015 nattokinase [2]; placed ten days at 4 ° C.): 116%
Relative activity(%) TKU015 nattokinase (TKU015 nattokinase [2]; placed ten days at 25 ° C.): 90%

Cc1ccccc1 [toluene]
Effect of organic solvent on TKU015 nattokinase activity (TKU015 nattokinase [1]): do not affect
Relative activity(%) TKU015 nattokinase (TKU015 nattokinase [1]): 106%
Relative activity(%) TKU015 nattokinase (TKU015 nattokinase [2]; placed ten days at 4 ° C.): 120%
Relative activity(%) TKU015 nattokinase (TKU015 nattokinase [2]; placed ten days at 25 ° C.): 100%
Organic solvent resistance of chitinase (chitinase; [6]): don't affect activity
Organic solvent resistance of chitosanase (chitosanase; [6]): don't affect activity
Effect of solvent on PseA protease activity [3]: doesn't change
Effect of solvent on PST-01 protease activity (PST-01 protease): doesn't change

[Al+3] [Al^3+]
Relative activity (%) Nattokinase (TKU015 nattokinase [4]; [9]): 101%

CCO [ethanol]
Relative activity(%) TKU015 nattokinase (TKU015 nattokinase [1]): 65%
Relative activity(%) TKU015 nattokinase (TKU015 nattokinase [2]; placed ten days at 4 ° C.): 114%
Relative activity(%) TKU015 nattokinase (TKU015 nattokinase [2]; placed ten days at 25 ° C.): 88%

[Fe+2] [Fe^2+]
Relative activity (%) Nattokinase (TKU015 nattokinase [4]; [9]): 232%
Relative activity (%) Nattokinase (TKU015 nattokinase [4]; [10]): 156%
Effect on TKU015 nattokinase activity (TKU015 nattokinase [4]): improve activity; also recorded: increase its activity
Effect of metal ions on chitinase activity (chitinase): inhibited; also recorded: prohibited

CCCCCCCCCCCCOS(=O)(=O)[O-].[Na+] [SDS]
TKU015 nattokinase remaining activity (TKU015 nattokinase [5]; concentration 0.5, 1, or 2 mM (one value in text)): 50%
Relative activity (%) Nattokinase (TKU015 nattokinase [5]; surfactant 0.5 mM): 66%
Relative activity (%) Nattokinase (TKU015 nattokinase [5]; surfactant 1 mM): 56%
Relative activity (%) Nattokinase (TKU015 nattokinase [5]; surfactant 2 mM): 56%
Remaining activity of PseA protease ([3]; concentration 0.1%): 61%

CC(C)=O [acetone]
Relative activity(%) TKU015 nattokinase (TKU015 nattokinase [1]): 150%
Relative activity(%) TKU015 nattokinase (TKU015 nattokinase [2]; placed ten days at 4 ° C.): 128%
Relative activity(%) TKU015 nattokinase (TKU015 nattokinase [2]; placed ten days at 25 ° C.): 108%
Organic solvent resistance of chitinase (chitinase; [7]): can affect activity
Organic solvent resistance of chitosanase (chitosanase; [8]): can affect activity
Activity of PST-01 protease (PST-01 protease): 200%
Effect of solvent on PST-01 protease activity (PST-01 protease): doesn't change
